Data on 14 compounds can be found in patent US20250163104A1, “MACROCYCLIC IMMUNOMODULATORS” (priority 2021, published 2025).

Like-named read-outs stand apart in the source and are kept apart here. Where a SMILES comes first, the peptide text is derived from it. Bridges are numbered along the chain shown (N, C = ends). [ ]: non-standard residue; d: D form. The star is where a group is joined. ξ: configuration not given here. Ala(morpholin-4-yl) = N[C@@H](CN1CCOCC1)C(=O)O; Phe(4-COOH) = N[C@@H](Cc1ccc(C(=O)O)cc1)C(=O)O; Bip = N[C@@H](Cc1ccc(-c2ccccc2)cc1)C(=O)O; Phe(3-Me) = Cc1cccc(C[C@H](N)C(=O)O)c1; 3Pal = N[C@@H](Cc1cccnc1)C(=O)O; 4Pal = N[C@@H](Cc1ccncc1)C(=O)O; Cha = N[C@@H](CC1CCCCC1)C(=O)O; Cit = NC(=O)NCCC[C@H](N)C(=O)O; Ile(3ξ) = CCC(C)[C@H](N)C(=O)O; dCha = N[C@H](CC1CCCCC1)C(=O)O; Thr(3ξ) = CC(O)[C@H](N)C(=O)O; Ala(CN) = N#CC[C@H](N)C(=O)O; Hpra = C#CCC[C@H](N)C(=O)O; Carboxymethyl = O=C(O)C*; Nle = CCCC[C@H](N)C(=O)O; Orn = NCCC[C@H](N)C(=O)O; Pra = C#CC[C@H](N)C(=O)O; Dab = NCC[C@H](N)C(=O)O; Dap = NC[C@H](N)C(=O)O

This assay has as its target T1, human PD-1 / PD-L1-Ig binding on Jurkat cell line over-expressing human PD-1 (Jurkat-PD-1) (Homo sapiens, UniProt Q15116).
T1 construct: expressed in transfected cells; host or cells: Jurkat
Description: Jurkat-PD-1 Cell Binding High-Content Screening Assay (CBA). It is filed as cell-based. In short, it runs like this: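 Jurkat cells over-expressing human PD-1, in DMEM/10% FCS, pre-incubated with compound 2 h at 37° C. PE-labeled human PD-L1-Ig (20 nM final) added for 1 h; cells fixed in paraformaldehyde with Hoechst 33342 nuclear stain, washed, and bound fluorescence quantified by high-content imaging.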

The mark [1] stands for this setting: Jurkat-PD-1 cells, PE-labeled PD-L1-Ig 20 nM final; read-out: Jurkat HPD1_PDL1 IC50.
Where [2] appears, read: read-out: Jurkat HPD1_PDL1 IC50; Jurkat-PD-1 cells, PE-labeled PD-L1-Ig 20 nM final.

For orientation: IC50 means the concentration that inhibits the measured activity by half.

T1 sequence (Q15116 25-288): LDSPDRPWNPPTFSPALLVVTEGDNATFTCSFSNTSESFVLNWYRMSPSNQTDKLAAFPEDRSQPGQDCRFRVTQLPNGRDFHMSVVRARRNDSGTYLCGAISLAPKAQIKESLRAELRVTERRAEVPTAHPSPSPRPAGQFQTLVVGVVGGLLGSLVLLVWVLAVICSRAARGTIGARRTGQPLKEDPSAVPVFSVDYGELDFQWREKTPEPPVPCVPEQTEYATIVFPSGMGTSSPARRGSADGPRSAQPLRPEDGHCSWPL

Consider `CC(C)[C@@H]1NC(=O)[C@H](Cc2c[nH]c3ccccc23)NC(=O)[C@H](CC(=O)O)NC(=O)[C@H](Cc2ccc(O)cc2)NC(=O)[C@H](CC(N)=O)NC(=O)CSC[C@@H](C(=O)N[C@@H](C)C(N)=O)NC(=O)[C@H]([C@@H](C)O)NC(=O)[C@H](C(C)C)NC(=O)[C@H](CC2CCCCC2)NC(=O)[C@H](CCN)NC(=O)[C@@H](CC2CCCCC2)NC(=O)[C@H](CCCN)NC(=O)[C@H](CCC(=O)O)NC(=O)[C@H](Cc2ccc(-c3ccccc3)cc2)NC1=O` [Compound 1442] ({CH2CO}-NYDWV[Bip]E[Orn][dCha][Dab][Cha]VTCA-NH2; thioether N-14), for which the half-maximal inhibitory concentration (IC50) under setting [1] was 15.9 nM.
As to `Cc1cccc(C[C@@H]2NC(=O)[C@H](CC(=O)O)NC(=O)[C@H](Cc3ccc(C(=O)O)cc3)NC(=O)[C@H](Cc3ccncc3)NC(=O)CSC[C@@H](C(=O)N[C@@H](CC(N)=O)C(N)=O)NC(=O)[C@H](CCC(=O)O)NC(=O)[C@H](C(C)C)NC(=O)[C@H](CC3CCCCC3)NC(=O)[C@H](CCN)NC(=O)[C@@H](CC(C)C)NC(=O)[C@H](CCCN)NC(=O)[C@H](Cc3ccc(OCC(=O)O)cc3)NC(=O)[C@H](Cc3ccc(-c4ccccc4)cc3)NC(=O)[C@H](Cc3ccc(OCC(=O)O)cc3)NC2=O)c1` [Compound 2304] ({CH2CO}-[4Pal][Phe(4-COOH)]D[Phe(3-Me)]Y(Carboxymethyl)[Bip]Y(Carboxymethyl)[Orn][dL][Dab][Cha]VECN-NH2; thioether N-14), under setting [1], the half-maximal inhibitory concentration (IC50) was found to be 15 nM.
Consider `C#CCC[C@@H]1NC(=O)[C@H](Cc2ccc(-c3ccccc3)cc2)NC(=O)[C@H](C(C)C)NC(=O)[C@H](Cc2cccc(C)c2)NC(=O)[C@H](CC(=O)O)NC(=O)[C@H](Cc2ccc(C(=O)O)cc2)NC(=O)[C@H](CN)NC(=O)CSC[C@@H](C(=O)N[C@@H](CCN)C(N)=O)NC(=O)[C@H]([C@@H](C)O)NC(=O)[C@H](C(C)C)NC(=O)[C@H](CC2CCCCC2)NC(=O)[C@H](CCN)NC(=O)[C@@H](CC(C)C)NC(=O)[C@H](CCCN)NC1=O` [Compound 2023] ({CH2CO}-[Dap][Phe(4-COOH)]D[Phe(3-Me)]V[Bip][Hpra][Orn][dL][Dab][Cha]VTC[Dab]-NH2; thioether N-14), for which, under setting [1], the IC50 stood at 11.4 nM.
For `CC(=O)NCC[C@@H]1NC(=O)[C@H](Cc2ccc(-c3ccccc3)cc2)NC(=O)[C@H](C(C)C)NC(=O)[C@H](Cc2c[nH]c3ccccc23)NC(=O)[C@H](CC(=O)O)NC(=O)[C@H](Cc2ccc(OCC(=O)O)cc2)NC(=O)[C@H](C(C)O)NC(=O)CSC[C@@H](C(N)=O)NC(=O)[C@H](C(C)O)NC(=O)[C@H](C(C)C)NC(=O)[C@H](CC2CCCCC2)NC(=O)[C@H](CCN)NC(=O)[C@@H](CC(C)C)NC(=O)[C@H](CCCN)NC1=O` (stereo partly drawn) [Compound 2606] ({CH2CO}-[Thr(3ξ)]Y(Carboxymethyl)DWV[Bip][Dab](Ac)[Orn][dL][Dab][Cha]V[Thr(3ξ)]C-NH2; thioether N-14), under setting [2], the IC50 is 76.4 nM.
Turning to `Cc1cccc(C[C@@H]2NC(=O)[C@H](CC(=O)O)NC(=O)[C@H](Cc3ccc(C(=O)O)cc3)NC(=O)[C@H](Cc3ccncc3)NC(=O)CSC[C@@H](C(N)=O)NC(=O)[C@H]([C@@H](C)O)NC(=O)[C@H](C(C)C)NC(=O)[C@H](CC3CCCCC3)NC(=O)[C@H](CCN)NC(=O)[C@@H](CC(C)C)NC(=O)[C@H](CCCN)NC(=O)[C@H](CCCNC(N)=O)NC(=O)[C@H](Cc3ccc(-c4ccccc4)cc3)NC(=O)[C@H](C(C)C)NC2=O)c1` [Compound 1549] ({CH2CO}-[4Pal][Phe(4-COOH)]D[Phe(3-Me)]V[Bip][Cit][Orn][dL][Dab][Cha]VTC-NH2; thioether N-14), the IC50 under setting [1] amounted to 10.9 nM.
The same measure, in the same setting: the figure for `C#CC[C@H](NC(=O)[C@H](CCN)NC(=O)[C@@H]1CSCC(=O)N[C@@H](CN2CCOCC2)C(=O)N[C@@H](Cc2ccc(OCC(=O)O)cc2)C(=O)N[C@@H](CC(=O)O)C(=O)N[C@@H](Cc2cccc(C)c2)C(=O)N[C@@H](Cc2ccc(OCC(=O)O)cc2)C(=O)N[C@@H](Cc2ccc(-c3ccccc3)cc2)C(=O)N[C@@H](Cc2ccc(OCC(=O)O)cc2)C(=O)N[C@@H](CCCN)C(=O)N[C@H](CC(C)C)C(=O)N[C@@H](CCN)C(=O)N[C@@H](CC2CCCCC2)C(=O)N[C@@H](C(C)C)C(=O)N[C@@H](CO)C(=O)N1)C(N)=O` [Compound 1863] ({CH2CO}-[Ala(morpholin-4-yl)]Y(Carboxymethyl)D[Phe(3-Me)]Y(Carboxymethyl)[Bip]Y(Carboxymethyl)[Orn][dL][Dab][Cha]VSC[Dab][Pra]-NH2; thioether N-14) is 4.3 nM; for `CCCC[C@@H]1NC(=O)[C@H](CCN)NC(=O)[C@@H](CC(C)C)NC(=O)[C@H](CCCN)NC(=O)[C@H](C(C)C)NC(=O)[C@H](Cc2ccc(-c3ccccc3)cc2)NC(=O)[C@H](C(C)C)NC(=O)[C@H](Cc2c[nH]c3ccccc23)NC(=O)[C@H](CC(=O)O)NC(=O)[C@H](Cc2ccc(O)cc2)NC(=O)[C@H](Cc2ccc(OCC(=O)O)cc2)NC(=O)CSC[C@@H](C(=O)N[C@@H](C)C(N)=O)NC(=O)[C@H]([C@@H](C)O)NC(=O)[C@H](C(C)C)NC1=O` [Compound 1170] ({CH2CO}-Y(Carboxymethyl)YDWV[Bip]V[Orn][dL][Dab][Nle]VTCA-NH2; thioether N-14) it is 10.8 nM; for `CC(C)C[C@@H]1NC(=O)[C@H](CCN)NC(=O)[C@@H](CC(C)C)NC(=O)[C@H](CCCN)NC(=O)[C@H](CCCNC(N)=O)NC(=O)[C@H](Cc2ccc(-c3ccccc3)cc2)NC(=O)[C@H](C(C)C)NC(=O)[C@H](Cc2c[nH]c3ccccc23)NC(=O)[C@H](CC(=O)O)NC(=O)[C@H](Cc2ccc(O)cc2)NC(=O)[C@H](CC(N)=O)NC(=O)CSC[C@@H](C(=O)NCC(N)=O)NC(=O)[C@H]([C@@H](C)O)NC(=O)[C@H](C(C)C)NC1=O` [Compound 1115] ({CH2CO}-NYDWV[Bip][Cit][Orn][dL][Dab]LVTCG-NH2; thioether N-14) it is 79.6 nM.
For `Cc1cccc(C[C@@H]2NC(=O)[C@H](CC(=O)O)NC(=O)[C@H](Cc3ccc(C(=O)O)cc3)NC(=O)[C@H](Cc3ccncc3)NC(=O)CSC[C@@H](C(=O)N[C@@H](C)C(N)=O)NC(=O)[C@H]([C@@H](C)O)NC(=O)[C@H](C(C)C)NC(=O)[C@H](CC3CCCCC3)NC(=O)[C@H](CCN)NC(=O)[C@@H](CC(C)C)NC(=O)[C@H](CCCN)NC(=O)[C@H](C(C)C)NC(=O)[C@H](Cc3ccc(-c4ccccc4)cc3)NC(=O)[C@H](C(C)C)NC2=O)c1` [Compound 1194], under setting [1], the IC50 came to 4.7 nM.
Regarding `Cc1cccc(C[C@@H]2NC(=O)[C@H](CC(=O)O)NC(=O)[C@H](Cc3ccc(OCC(=O)O)cc3)NC(=O)[C@H](CCN)NC(=O)CSC[C@@H](C(=O)N[C@@H](CCCN)C(N)=O)NC(=O)[C@H](C(C)O)NC(=O)[C@H](C(C)C)NC(=O)[C@H](CC3CCCCC3)NC(=O)[C@H](CCN)NC(=O)[C@@H](CC(C)C)NC(=O)[C@H](CCCN)NC(=O)[C@H](CCCNC(N)=O)NC(=O)[C@H](Cc3ccc(-c4ccccc4)cc3)NC(=O)[C@H](C(C)C)NC2=O)c1` (stereo partly drawn) [Compound 2639] ({CH2CO}-[Dab]Y(Carboxymethyl)D[Phe(3-Me)]V[Bip][Cit][Orn][dL][Dab][Cha]V[Thr(3ξ)]C[Orn]-NH2; thioether N-14), the IC50 under setting [1] is 13.6 nM.
Consider `CC(C)C[C@H]1NC(=O)[C@H](CCCN)NC(=O)[C@H](CCC(=O)O)NC(=O)[C@H](Cc2ccc(-c3ccccc3)cc2)NC(=O)[C@H](C(C)C)NC(=O)[C@H](Cc2c[nH]c3ccccc23)NC(=O)[C@H](CC(=O)O)NC(=O)[C@H](Cc2cccnc2)NC(=O)[C@H](CN)NC(=O)CSC[C@@H](C(=O)N[C@@H](C)C(N)=O)NC(=O)[C@H]([C@@H](C)O)NC(=O)[C@H](C(C)C)NC(=O)[C@H](CC2CCCCC2)NC(=O)[C@H](CCN)NC1=O` [Compound 2172] ({CH2CO}-[Dap][3Pal]DWV[Bip]E[Orn][dL][Dab][Cha]VTCA-NH2; thioether N-14), for which the half-maximal inhibitory concentration (IC50) under setting [1] worked out at 23.7 nM.
Turning to `CC(C)C[C@H]1NC(=O)[C@H](CCCN)NC(=O)[C@H](CCCN)NC(=O)[C@H](Cc2ccc(-c3ccccc3)cc2)NC(=O)[C@H](C(C)C)NC(=O)[C@H](Cc2c[nH]c3ccccc23)NC(=O)[C@H](CC(=O)O)NC(=O)[C@H](Cc2ccc(C(=O)O)cc2)NC(=O)[C@H](Cc2ccc(OCC(=O)O)cc2)NC(=O)CSC[C@@H](C(=O)N[C@@H](C)C(N)=O)NC(=O)[C@H]([C@@H](C)O)NC(=O)[C@H](C(C)C)NC(=O)[C@H](CC2CCCCC2)NC(=O)[C@H](CCN)NC1=O` [Compound 1382] ({CH2CO}-Y(Carboxymethyl)[Phe(4-COOH)]DWV[Bip][Orn][Orn][dL][Dab][Cha]VTCA-NH2; thioether N-14), the IC50 under setting [1] was 14 nM.
Turning to `CCC(C)[C@@H]1NC(=O)[C@H](Cc2ccc(-c3ccccc3)cc2)NC(=O)[C@H](CC#N)NC(=O)[C@H](Cc2c[nH]c3ccccc23)NC(=O)[C@H](CC(=O)O)NC(=O)[C@H](Cc2ccc(OCC(=O)O)cc2)NC(=O)[C@H](C(C)O)NC(=O)CSC[C@@H](C(=O)N[C@@H](CC(N)=O)C(=O)O)NC(=O)[C@H](CO)NC(=O)[C@H](C(C)C)NC(=O)[C@H](CC(C)C)NC(=O)[C@H](CCN)NC(=O)[C@@H](CC(C)C)NC(=O)[C@H](CCCN)NC1=O` (stereo partly drawn) [Compound 2579] ({CH2CO}-[Thr(3ξ)]Y(Carboxymethyl)DW[Ala(CN)][Bip][Ile(3ξ)][Orn][dL][Dab]LVSCN-OH; thioether N-14), the IC50 under setting [2] worked out at 153 nM.
With `CC(C)C[C@H]1NC(=O)[C@H](CCCN)NC(=O)[C@H](CCCCN)NC(=O)[C@H](Cc2ccc(-c3ccccc3)cc2)NC(=O)[C@H](C(C)C)NC(=O)[C@H](Cc2c[nH]c3ccccc23)NC(=O)[C@H](CC(=O)O)NC(=O)[C@H](Cc2ccncc2)NC(=O)[C@H](CN)NC(=O)CSC[C@@H](C(=O)N[C@@H](CC(N)=O)C(N)=O)NC(=O)[C@H](C(C)O)NC(=O)[C@H](C(C)C)NC(=O)[C@H](CC2CCCCC2)NC(=O)[C@H](CCN)NC1=O` (stereo partly drawn) [Compound 2542] ({CH2CO}-[Dap][4Pal]DWV[Bip]K[Orn][dL][Dab][Cha]V[Thr(3ξ)]CN-NH2; thioether N-14), the IC50 under setting [1] came out at 20.5 nM.
